Measured values: PMC2853924 (Journal of medicinal chemistry, 2010)
Where two headings read alike, the source gives them in different places.

Experiments:
Torpedo VAChT [1] = biological target: T1, Torpedo VAChT (Tetronarce californica, UniProt P81721); conditions: for VAChT/σ selectivity (in words): based on selectivity index; for VAChT/sigma selectivity index (selectivity ratio): Ki (σ1 or σ2)/Ki (VAChT)
T1 sequence (P81721 1-515): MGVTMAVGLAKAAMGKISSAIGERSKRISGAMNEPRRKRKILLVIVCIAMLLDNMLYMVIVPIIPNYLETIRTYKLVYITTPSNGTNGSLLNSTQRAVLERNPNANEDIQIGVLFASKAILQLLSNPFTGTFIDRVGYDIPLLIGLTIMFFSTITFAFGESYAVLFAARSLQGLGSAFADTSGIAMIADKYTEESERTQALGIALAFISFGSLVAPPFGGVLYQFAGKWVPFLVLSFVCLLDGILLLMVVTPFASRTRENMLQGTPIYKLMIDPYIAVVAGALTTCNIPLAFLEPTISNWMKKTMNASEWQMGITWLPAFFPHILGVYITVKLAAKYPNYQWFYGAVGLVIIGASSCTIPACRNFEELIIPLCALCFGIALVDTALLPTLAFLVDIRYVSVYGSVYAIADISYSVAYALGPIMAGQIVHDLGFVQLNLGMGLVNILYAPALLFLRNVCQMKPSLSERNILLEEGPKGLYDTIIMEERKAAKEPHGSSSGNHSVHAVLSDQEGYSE

Torpedo VAChT [2] = biological target: T1, Torpedo VAChT; conditions: read-out: VAChT (Ki [nM]), cited from earlier work
σ1 receptor = σ1 receptor (Cavia porcellus, UniProt Q60492); format: binding, guinea pig
σ2 receptor = biological target: T2, σ2 receptor (Rattus norvegicus, UniProt Q5U3Y7); experiment: σ2 receptor binding assay, [3H]DTG, rat liver membrane homogenates
T2 sequence (Q5U3Y7 1-176): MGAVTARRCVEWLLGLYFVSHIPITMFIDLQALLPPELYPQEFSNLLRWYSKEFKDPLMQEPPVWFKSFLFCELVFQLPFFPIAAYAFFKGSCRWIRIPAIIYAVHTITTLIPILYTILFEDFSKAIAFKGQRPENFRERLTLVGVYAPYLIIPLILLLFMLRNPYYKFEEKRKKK

Sequence of σ1 receptor (Q60492 whole entry): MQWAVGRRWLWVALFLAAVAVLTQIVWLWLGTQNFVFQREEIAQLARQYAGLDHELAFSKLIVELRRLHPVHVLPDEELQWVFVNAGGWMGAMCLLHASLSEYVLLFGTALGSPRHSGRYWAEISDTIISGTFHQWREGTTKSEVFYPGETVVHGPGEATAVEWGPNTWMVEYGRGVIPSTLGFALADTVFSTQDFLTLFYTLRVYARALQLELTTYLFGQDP

Cl.O=C(c1ccccc1)C1(c2ccccc2)CCN([C@@H]2Cc3ccccc3C[C@H]2O)CC1 (relative stereo) [Compound 22a, trans-3-(4-Benzoyl-4-phenylpiperidinyl)-2-hydroxy-1,2,3,4-tetrahydronaphthalene hydrochloride]
fold less potent at VAChT than benzovesamicol (2) (Torpedo VAChT [1]; relative to benzovesamicol (2)): 30 fold

O=C(c1ccc(F)cc1)C1CCN([C@@H]2Cc3ccccc3C[C@H]2O)CC1 (relative stereo) [Compound 28b, trans-3-[4-(4-fluorobenzoyl)piperidinyl]-2-hydroxy-1,2,3,4-tetrahydronaphthalene]
Ki (Torpedo VAChT [2]): 2.7 ± 0.4 nM

Cl.O=C(c1ccc(Br)s1)C1CCN([C@@H]2Cc3ccccc3C[C@H]2O)CC1 (relative stereo) [Compound 28g, trans-3-[4-(5-Bromothienylcarbonyl)piperidinyl]-2-hydroxy-1,2,3,4-tetrahydronaphthalene hydrochloride]
VAChT/σ selectivity (in words) (Torpedo VAChT [1]): high VAChT/σ selectivity

Cl.O=C(c1ccc(I)s1)C1CCN([C@@H]2Cc3ccccc3C[C@H]2O)CC1 (relative stereo) [Compound 28h, trans-3-[4-(5-Iodothienylcarbonyl)piperidinyl]-2-hydroxy-1,2,3,4-tetrahydronaphthalene hydrochloride]
VAChT/σ selectivity (in words) (Torpedo VAChT [1]): high VAChT/σ selectivity

Cl.O=C(C1CCN([C@@H]2Cc3ccccc3C[C@H]2O)CC1)N1CCCCC1 (relative stereo) [Compound 34a, Trans-3-[4-(piperidyl)carbonylpiperidyl]-2-hydroxy-1,2,3,4-tetrahydronaphthalene hydrochloride]
Selectivity Index Ki-σ1/Ki-VAChT (σ1 receptor; Ki (σ1)/Ki (VAChT)): >32.3 | Selectivity Index Ki-σ2/Ki-VAChT (σ2 receptor): >32.3

Cl.O=C(C1CCN([C@@H]2Cc3ccccc3C[C@H]2O)CC1)N1CCC(c2ccccc2)CC1 (relative stereo) [Compound 34b, trans-3-[4-(4-Phenylpiperidyl)carbonylpiperidyl]-2-hydroxy-1,2,3,4-tetrahydronaphthalene hydrochloride]
Selectivity Index Ki-σ2/Ki-VAChT (σ2 receptor): >483.1

Cl.O=C(C1CCN([C@@H]2Cc3ccccc3C[C@H]2O)CC1)N1CCC(Cc2ccccc2)CC1 (relative stereo) [Compound 34c, trans-3-[4-(4-Benzylpiperidyl)carbonylpiperidyl]-2-hydroxy-1,2,3,4-tetrahydronaphthalene hydrochloride]
Selectivity Index Ki-σ2/Ki-VAChT (σ2 receptor): >416.7

Cl.O=C(C1CCN([C@@H]2Cc3ccccc3C[C@H]2O)CC1)N1CCN(Cc2ccccc2)CC1 (relative stereo) [Compound 34d, trans-3-[4-(4-Benzylpiperazinyl)carbonylpiperidyl]-2-hydroxy-1,2,3,4-tetrahydronaphthalene hydrochloride]
Selectivity Index Ki-σ2/Ki-VAChT (σ2 receptor): >480.8 | VAChT/σ selectivity (in words) (Torpedo VAChT [1]): moderate selectivity

CCOC(=O)C1CCN([C@@H]2Cc3ccccc3C[C@H]2O)CC1.Cl (relative stereo) [Compound 34e, trans-3-[4-Ethoxycarbonylpiperidyl]-2-hydroxy-1,2,3,4-tetrahydronaphthalene hydrochloride]
Selectivity Index Ki-σ1/Ki-VAChT (σ1 receptor; Ki (σ1)/Ki (VAChT)): >14.6 | Selectivity Index Ki-σ2/Ki-VAChT (σ2 receptor): >14.6

Nc1cccc2c1CC(N1CCC(c3ccccc3)CC1)C(O)C2 (stereo not shown) [Compound 3, reference compound]
Ki (Torpedo VAChT [2]; Torpedo synaptic vesicles): 0.0065 ± 0.0005 nM

Cl.O=C(c1ccccc1)C1(c2ccccc2)CCN([C@@H]2CCCC[C@H]2O)CC1 [Compound 20, 2-(4-Benzoyl-4-phenylpiperidinyl)cyclohexanol hydrochloride]
fold lower affinity for VAChT than vesamicol (1) (Torpedo VAChT [1]; relative to vesamicol (1)): 35 fold

Cl.O=C(c1ccc(I)s1)C1CCN([C@@H]2CCCC[C@H]2O)CC1 [Compound 27h, 2-[4-(5-Iodothien-2-yl)carbonylpiperidinyl]cyclohexanol hydrochloride]
affinity for σ1 receptors (class in words) (σ1 receptor): high (high (Ki = 1–10 nM))

Cl.Nc1cccc2c1C[C@@H](N1CCC(C(=O)c3ccc(F)cc3)CC1)[C@H](O)C2 [Compound 30b, 5-Amino-3-[4-(p-fluorobenzoyl)piperidinyl]-2-hydroxy-1,2,3,4,-tetrahydronaphthalene hydrochloride]
Selectivity Index Ki-σ1/Ki-VAChT (σ1 receptor): >416.7 | Selectivity Index Ki-σ2/Ki-VAChT (σ2 receptor): >416.7

Cl.Nc1cccc2c1C[C@@H](N1CCC(C(=O)c3ccc(Br)cc3)CC1)[C@H](O)C2 [Compound 30c, 5-Amino-3-[4-(p-bromobenzoyl)piperidinyl]-2-hydroxy-1,2,3,4,-tetrahydronaphthalene hydrochloride]
VAChT/sigma selectivity index (selectivity ratio) (Torpedo VAChT [1]): greater than 500

Cl.Nc1cccc2c1C[C@@H](N1CCC(C(=O)c3cccs3)CC1)[C@H](O)C2 [Compound 30f, 5-Amino-3-[4-(thien-2-yl)carbonylpiperidyl]-2-hydroxy-1,2,3,4-tetrahydronaphthalene hydrochloride]
Selectivity Index Ki-σ1/Ki-VAChT (σ1 receptor; Ki (σ1)/Ki (VAChT)): >204.1 | Selectivity Index Ki-σ2/Ki-VAChT (σ2 receptor): >204.1

Cl.Nc1cccc2c1C[C@@H](N1CCC(C(=O)c3ccc(Br)s3)CC1)[C@H](O)C2 [Compound 30g, 5-Amino-3-[4-(5-bromothien-2-yl)carbonylpiperidinyl]-2-hydroxy-1,2,3,4-tetrahydronaphthalene hydrochloride]
Selectivity Index Ki-σ1/Ki-VAChT (σ1 receptor): >2439.0 | Selectivity Index Ki-σ2/Ki-VAChT (σ2 receptor): >2439.0 | VAChT/sigma selectivity index (selectivity ratio) (Torpedo VAChT [1]): greater than 1000

Cl.Nc1cccc2c1C[C@@H](O)[C@H](N1CCC(C(=O)c3cccs3)CC1)C2 [Compound 31f, 8-Amino-3-[4-(thien-2-yl)carbonylpiperidyl]-2-hydroxy-1,2,3,4-tetrahydronaphthalene hydrochloride]
Selectivity Index Ki-σ1/Ki-VAChT (σ1 receptor): >7.5 | Selectivity Index Ki-σ2/Ki-VAChT (σ2 receptor): >7.5
